Measured values from US11471414B2, “Compositions and methods for the treatment and prophylaxis of surgical site infections” (Polypid Ltd., priority 2014, dated 2022).

System: Staphylococcus aureus (ATCC 29213) preformed biofilm
Test: MBEC Physiology and Genetics Assay, eradication of an established biofilm
Type: cell-based
Procedure: The effectiveness of tri-calcium phosphate granules coated with a matrix composition according to embodiments of the invention in eradicating established biofilm was measured using the MBEC™ (Minimum Biofilm Eradication Concentration) Physiology and Genetics Assay.
MBEC™ Test Method Overview: MBEC™ test method specifies the operational parameters required to grow and treat different bacterial biofilms in a high throughput screening assay. The assay device consists of a plastic lid with ninety-six (96) pegs and a corresponding receiver plate with ninety-six (96) individual wells that have a maximum 200 μL working volume. Biofilm is established on the pegs in a batch culture based model (i.e., no flow of nutrients into or out of an individual well) with gentle mixing. The established biofilm is transferred to a new receiver plate for disinfectant efficacy testing.
Test Organisms: Staphylococcus aureus (an osteomyelitis-related strains); source: ATCC
29213; Dilution/Challenge Media: 1,000×TSB+10% human serum 24 hrs; Growth Media/agar: Tryptic Soy Broth/Tryptic Soy agar for 24 hrs Aerobic cond.
TEST METHOD overview: The experimental process for high-throughput antimicrobial susceptibility testing using the hydroxyapatite coated MBEC™ P&G assay. This standard protocol was broken into a series of small steps, each of which is detailed in the sections below.
Using a cryogenic stock (at −70° C.), a first sub-culture of Staphylococcus aureus was streaked out on OSA (organism specific agar). The plates were incubated at appropriate growth conditions for 20±2.0 hours and further stored at 4° C.
A second sub-culture taken from the first sub-culture was streaked out on OSA. The plates were incubated at appropriate growth conditions for 20±2.0 hours. An isolated colony from the second sub-culture was aseptically removed from the OSA plate and inoculated into 50 mL of sterile bacterial liquid growth broth, followed by incubation appropriate growth conditions for 20±2.0 hours (at 150 rpm).
The inoculum was adjusted to an approximate cell density of 10^6 CFU/mL.
150 μL of the remaining diluted organism were placed in each of the corresponding wells of an MBEC™ P&G device except the sterility controls (Table 5). The device was placed on an orbital shaker (110 RPM) in a humidified incubator at 37±1° C.
The biofilm formed on the lid of the MBEC device was rinsed by dipping the lid into saline (˜30 seconds) to remove planktonic cells. The lid was then put on top of the challenge plate and incubated on a rotary shaker at 110 rpm at 35±2° C. for 24±2 hours.
After incubation (specified above), planktonic cells were rinsed off the biofilm by dipping the lid into saline (˜20-30 seconds). The lid was then transferred to a neutralizer/recovery plate and put in a sonicator (˜30 minutes) to dislodge surviving biofilm.
Following sonication, 100 μL from each well of the MBEC™ plate, were put into the first 12 empty wells of the first row of a 96 well-micro titer plate and were further diluted by 10 fold down each of the 8 rows (10^0-10^7 dilution). 5 μL from each well were then used for spotting prepared OSA plates. The agar plates were incubated at 37±1° C. and counted after approximately 24-48 hours of incubation. The arithmetic mean of the number of colonies counted on the plates was calculated.
100 μL of the sterile neutralizer was added to each well of the recovery plate to top up the volume back to 200 μL. The refilled plate is incubated at 35±2° C. for 24±2 hours.
Comparator MBEC results were determined following the 24±2 hour incubation using the plate reader.
The log density for one peg was calculated as follows: LOG10(CFU/peg)=LOG10[(X/B)(D)] where: X=mean CFU; B=volume plated (0.02 mL) and D=dilution.
The overall biofilm accumulation was determined by calculating the mean of the log densities calculated.
LOG10 reduction for each dilution was calculated as follows: LOG10 Reduction=Mean LOG10 Growth Control−Mean LOG10 Test Sample.

Gentamicin
Log Reduction (Log R) vs. GC (growth control) (D 0.5): 1.11
Average Log10 CFU/peg recoveries (D 0.5 (μg)): 3.48 Log10 CFU/peg
Log Reduction (Log R) vs. GC (growth control) (D 1.0): 1.38
Average Log10 CFU/peg recoveries (D 1.0 (μg)): 3.21 Log10 CFU/peg
Log Reduction (Log R) vs. GC (growth control) (D 2.0): 2.90
Average Log10 CFU/peg recoveries (D 2.0 (μg)): 1.69 Log10 CFU/peg
Log Reduction (Log R) vs. GC (growth control) (D 4.0): 3.29
Average Log10 CFU/peg recoveries (D 4.0 (μg)): 1.31 Log10 CFU/peg
Log Reduction (Log R) vs. GC (growth control) (D 8.0): 4.59
Average Log10 CFU/peg recoveries (D 8.0 (μg)): 0.00 Log10 CFU/peg
Log Reduction (Log R) vs. GC (growth control) (D 16): 4.59
Average Log10 CFU/peg recoveries (D 16 (μg)): 0.00 Log10 CFU/peg
Log Reduction (Log R) vs. GC (growth control) (D 32): 4.59
Average Log10 CFU/peg recoveries (D 32 (μg)): 0.00 Log10 CFU/peg
